Data set [1] can be described thus: Cytotoxicity against BALB/c mouse splenocytes incubated for 48 hrs by MTT assay. It counts as toxicity, cell-based, Splenocyte. On the technique in general: Formazan colour is commonly taken as a measure of viable cells.
Data set [2] has as its system Splenocyte. The data set is described as follows: Immunosuppressive activity in BALB/c mouse splenocytes assessed as inhibition of ConA-induced T cell proliferation by measuring [3H]-thymidine uptake by beta scintillation counter analysis. It counts as functional, cell-based.
A short description of data set [3]: Selectivity index, ratio of CC50 for cytotoxicity against BALB/c mouse splenocyte to IC50 for immunosuppressive activity in BALB/c mouse splenocytes assessed as inhibition of ConA-induced T cell proliferation. Type of data set: cell-based. As to conditions: read-out: Ratio CC50/IC50.
The test system of data set [4] is Splenocyte. The data set is described as follows: Immunosuppressive activity in BALB/c mouse splenocytes assessed as inhibition of LPS-induced B cell proliferation by measuring [3H]-thymidine uptake by beta scintillation counter analysis. It counts as functional, cell-based.
Data set [5] can be described thus: Selectivity index, ratio of CC50 for cytotoxicity against BALB/c mouse splenocyte to IC50 for immunosuppressive activity in BALB/c mouse splenocytes assessed as inhibition of LPS-induced B cell proliferation. Type of data set: cell-based. Particulars: read-out: Ratio CC50/IC50.

The CC50 is the concentration at which the toxic effect on the cells reaches its halfway point. A lower CC50 goes with harm at low concentration. As a reminder, the IC50 is the concentration at which inhibition is half-maximal.

`OC[C@H](Cc1cc2c(cc1O)OCO2)[C@](O)(CO)Cc1cc2c(cc1O)OCO2` registered a half-maximal cytotoxic concentration (CC50) at 48 h in data set [1] of 108 µM. The IC50 in the data set with Splenocyte [2] turned out to be 56.2 µM; with Splenocyte [4] it was 26.7 µM. The figures for the selectivity ratio in data set [3] and in data set [5] were 1.9 and 4.1, respectively.

With `COc1cc2c(cc1O)O[C@H]1OC[C@H](Cc3cc4c(cc3O)OCO4)[C@H]1C2`, it took 82.5 µM to reach half-maximal cytotoxicity in data set [1] (CC50 at 48 h). In addition, the IC50 is 14.8 µM in the data set with Splenocyte [2] and 12.1 µM with Splenocyte [4]. Besides, the selectivity ratio was found to be 5.6 in data set [3] and 6.8 in data set [5].

In turn, `COc1cc(C[C@H]2CO[C@@H]3Oc4cc5c(cc4C[C@H]23)OCO5)ccc1O` had a CC50 at 48 h in data set [1] of 40.1 µM. Further, the IC50 was determined as 10.1 µM with Splenocyte [2] and 2.7 µM with Splenocyte [4]. Moreover, the selectivity ratio in data set [3] stood at 4; in data set [5], 14.9.

`OC[C@H](Cc1ccc2c(c1)OCO2)[C@](O)(CO)Cc1cc2c(cc1O)OCO2` returned a CC50 at 48 h in data set [1] of 99.3 µM. The IC50 is 27.3 µM with Splenocyte [2] and 18.2 µM in the data set with Splenocyte [4]. The selectivity ratio in data set [3] amounted to 3.6.

Compound `O=C(Cc1ccc2c(c1)OCO2)[C@H](CO)Cc1ccc2c(c1)OCO2` displayed a 50% cytotoxic concentration (CC50) at 48 h in data set [1] of 68 µM. The IC50 amounted to 18 µM in the data set with Splenocyte [2] and 3.9 µM in the data set with Splenocyte [4]. In addition, the selectivity ratio was found to be 3.8 in data set [3] and 17.5 in data set [5].

Consider `Oc1cc2c(cc1C[C@H]1CO[C@@H]3Oc4cc5c(cc4C[C@H]13)OCO5)OCO2`, for which it took 90.3 µM to reach half-maximal cytotoxicity in data set [1] (CC50 at 48 h). For the same compound, the 50% inhibitory concentration (IC50) in the data set on Splenocyte [2] was found to be 51.7 µM; with Splenocyte [4], 32.8 µM. Also, the selectivity ratio in data set [3] came to 1.7; in data set [5], 2.8.

These data come from ChEMBL document CHEMBL5321255, “Sumatranins A-J: Lignans with Immunosuppressive Activity from Cleistanthus sumatranus” (J Nat Prod, 2023).
